According to PubChem BioAssay (NCI):
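Grown in 96-well plates, cells were treated for 48 hours with each compound at five concentrations. Insufficient inhibition: endpoint recorded as highest concentration tested. GI50 marks 50% less growth. TGI denotes the concentration required for complete inhibition of growth.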

Legend:
Experiment in all cases: NCI anticancer screen, dose series, 48 h; in the data active = GI50 below about 0.43 µM; inactive = the rest
HCT-15 colon = system: HCT-15 colon
A498 renal = system: A498 renal
OVCAR-3 ovarian = system: OVCAR-3 ovarian
LXFL 529 NSCLC = system: LXFL 529 NSCLC
SF-539 CNS = system: SF-539 CNS
UACC-257 melanoma = system: UACC-257 melanoma
HOP-62 NSCLC = system: HOP-62 NSCLC
SNB-78 CNS = system: SNB-78 CNS
NCI-H522 lung = system: NCI-H522 lung
SN12C renal = system: SN12C renal
LOX IMVI melanoma = system: LOX IMVI melanoma
HL-60(TB) leukemia = system: HL-60(TB) leukemia
DLD-1 colon = system: DLD-1 colon
TK-10 renal = system: TK-10 renal
CAKI-1 renal = system: CAKI-1 renal
EKVX NSCLC = system: EKVX NSCLC
HCC-2998 colon = system: HCC-2998 colon
MOLT-4 leukemia = system: MOLT-4 leukemia
NCI-H23 lung = system: NCI-H23 lung
A549 NSCLC = system: A549 NSCLC
DMS 273 small cell lung = system: DMS 273 small cell lung
OVCAR-5 ovarian = system: OVCAR-5 ovarian
HCT-116 colon = system: HCT-116 colon
HOP-18 NSCLC = system: HOP-18 NSCLC
786-0 renal = system: 786-0 renal
M14 melanoma = system: M14 melanoma
SF-295 CNS = system: SF-295 CNS
SK-MEL-2 melanoma = system: SK-MEL-2 melanoma
HT29 colon = system: HT29 colon
RXF 393 renal = system: RXF 393 renal
OVCAR-4 ovarian = system: OVCAR-4 ovarian
ACHN renal = system: ACHN renal
COLO 205 colon = system: COLO 205 colon
SK-OV-3 ovarian = system: SK-OV-3 ovarian
UACC-62 melanoma = system: UACC-62 melanoma
MALME-3M melanoma = system: MALME-3M melanoma
SW-620 colon = system: SW-620 colon
HOP-92 NSCLC = system: HOP-92 NSCLC
UO-31 renal = system: UO-31 renal
U251 CNS = system: U251 CNS
SNB-19 CNS = system: SNB-19 CNS
SNB-75 CNS = system: SNB-75 CNS
KM20L2 colon = system: KM20L2 colon
CCRF-CEM leukemia = system: CCRF-CEM leukemia
SK-MEL-28 melanoma = system: SK-MEL-28 melanoma
IGROV1 ovarian = system: IGROV1 ovarian
K-562 leukemia = system: K-562 leukemia
SK-MEL-5 melanoma = system: SK-MEL-5 melanoma
NCI-H460 lung = system: NCI-H460 lung
SF-268 CNS = system: SF-268 CNS
SR leukemia = system: SR leukemia
RPMI-8226 leukemia = system: RPMI-8226 leukemia
NCI-H226 lung = system: NCI-H226 lung
OVCAR-8 ovarian = system: OVCAR-8 ovarian
KM12 colon = system: KM12 colon
XF 498 CNS = system: XF 498 CNS

O=C([O-])c1ccc2c(c1)-c1nc-2nc2[n-]c(nc3nc(nc4[n-]c(n1)c1ccc(C(=O)[O-])cc41)-c1ccc(C(=O)[O-])cc1-3)c1ccc(C(=O)[O-])cc21.[Gd+3].[K+]
> 55.2 µM: TGI (COLO 205 colon)
> 56.8 µM: TGI (K-562 leukemia)
> 54.2 µM: TGI (CCRF-CEM leukemia)
34.6 µM: TGI (KM12 colon)
> 54.5 µM: TGI (HL-60(TB) leukemia)
> 100 µM: TGI (A498 renal) | TGI (OVCAR-3 ovarian) | TGI (LXFL 529 NSCLC) | TGI (UACC-257 melanoma) | TGI (HOP-62 NSCLC) | TGI (SNB-78 CNS) | TGI (NCI-H522 lung) | TGI (SN12C renal) | TGI (TK-10 renal) | TGI (CAKI-1 renal) | TGI (EKVX NSCLC) | TGI (HCC-2998 colon) | TGI (MOLT-4 leukemia) | TGI (NCI-H23 lung) | TGI (A549 NSCLC) | TGI (OVCAR-5 ovarian) | TGI (HOP-18 NSCLC) | TGI (M14 melanoma) | TGI (SF-295 CNS) | TGI (SK-MEL-2 melanoma) | TGI (HT29 colon) | TGI (RXF 393 renal) | TGI (ACHN renal) | TGI (SK-OV-3 ovarian) | TGI (UACC-62 melanoma) | TGI (MALME-3M melanoma) | TGI (HOP-92 NSCLC) | TGI (UO-31 renal) | TGI (U251 CNS) | TGI (SNB-19 CNS) | TGI (SNB-75 CNS) | TGI (KM20L2 colon) | TGI (SK-MEL-28 melanoma) | TGI (IGROV1 ovarian) | TGI (SK-MEL-5 melanoma) | TGI (NCI-H460 lung) | TGI (SF-268 CNS) | TGI (NCI-H226 lung) | TGI (OVCAR-8 ovarian) | TGI (XF 498 CNS)
> 71.7 µM: TGI (OVCAR-4 ovarian)
> 94 µM: TGI (DLD-1 colon)
45.7 µM: TGI (LOX IMVI melanoma)
36.1 µM: TGI (DMS 273 small cell lung)
53.9 µM: TGI (SR leukemia)
inactive: GI50 (HCT-15 colon) > 42.6 µM | GI50 (A498 renal) > 100 µM | GI50 (OVCAR-3 ovarian) > 100 µM | GI50 (LXFL 529 NSCLC) > 57.1 µM | GI50 (SF-539 CNS) > 46.5 µM | GI50 (UACC-257 melanoma) > 100 µM | GI50 (HOP-62 NSCLC) > 100 µM | GI50 (SNB-78 CNS) > 100 µM | GI50 (NCI-H522 lung) > 100 µM | GI50 (SN12C renal) > 72.7 µM | GI50 (LOX IMVI melanoma) 16.6 µM | GI50 (HL-60(TB) leukemia) > 38.5 µM | GI50 (DLD-1 colon) > 53.2 µM | GI50 (TK-10 renal) > 100 µM | GI50 (CAKI-1 renal) > 100 µM | GI50 (EKVX NSCLC) > 100 µM | GI50 (HCC-2998 colon) > 100 µM | GI50 (MOLT-4 leukemia) > 49 µM | GI50 (NCI-H23 lung) > 100 µM | GI50 (A549 NSCLC) > 100 µM | GI50 (DMS 273 small cell lung) 16.6 µM | GI50 (OVCAR-5 ovarian) > 100 µM | GI50 (HCT-116 colon) > 40.1 µM | GI50 (HOP-18 NSCLC) > 100 µM | GI50 (786-0 renal) 18 µM | GI50 (M14 melanoma) > 65.1 µM | GI50 (SF-295 CNS) > 100 µM | GI50 (SK-MEL-2 melanoma) > 100 µM | GI50 (HT29 colon) > 83.1 µM | GI50 (RXF 393 renal) > 100 µM | GI50 (OVCAR-4 ovarian) > 46.7 µM | GI50 (ACHN renal) > 100 µM | GI50 (COLO 205 colon) > 38.9 µM | GI50 (SK-OV-3 ovarian) > 100 µM | GI50 (UACC-62 melanoma) 99.7 µM | GI50 (MALME-3M melanoma) > 100 µM | GI50 (SW-620 colon) > 22.8 µM | GI50 (HOP-92 NSCLC) > 100 µM | GI50 (UO-31 renal) > 100 µM | GI50 (U251 CNS) > 57 µM | GI50 (SNB-19 CNS) > 100 µM | GI50 (SNB-75 CNS) > 100 µM | GI50 (KM20L2 colon) > 58.8 µM | GI50 (CCRF-CEM leukemia) > 36.5 µM | GI50 (SK-MEL-28 melanoma) > 100 µM | GI50 (IGROV1 ovarian) > 100 µM | GI50 (K-562 leukemia) > 38.9 µM | GI50 (SK-MEL-5 melanoma) > 100 µM | GI50 (NCI-H460 lung) > 100 µM | GI50 (SF-268 CNS) > 64.1 µM | GI50 (SR leukemia) 30.6 µM | GI50 (RPMI-8226 leukemia) > 47.2 µM | GI50 (NCI-H226 lung) > 100 µM | GI50 (OVCAR-8 ovarian) > 100 µM | GI50 (KM12 colon) 19.1 µM | GI50 (XF 498 CNS) > 100 µM
> 50.9 µM: TGI (SW-620 colon)
> 64.3 µM: TGI (HCT-15 colon)
> 69 µM: TGI (SF-539 CNS)
40.9 µM: TGI (786-0 renal)
> 56.6 µM: TGI (HCT-116 colon)
> 66 µM: TGI (RPMI-8226 leukemia)
